{"source": "paper PMC3567921", "about": "(Clinical cancer research : an official journal of the …, 2012)", "biological_target": "T1, Axl (Homo sapiens, UniProt P30530)", "T1 sequence (P30530 26-894)": "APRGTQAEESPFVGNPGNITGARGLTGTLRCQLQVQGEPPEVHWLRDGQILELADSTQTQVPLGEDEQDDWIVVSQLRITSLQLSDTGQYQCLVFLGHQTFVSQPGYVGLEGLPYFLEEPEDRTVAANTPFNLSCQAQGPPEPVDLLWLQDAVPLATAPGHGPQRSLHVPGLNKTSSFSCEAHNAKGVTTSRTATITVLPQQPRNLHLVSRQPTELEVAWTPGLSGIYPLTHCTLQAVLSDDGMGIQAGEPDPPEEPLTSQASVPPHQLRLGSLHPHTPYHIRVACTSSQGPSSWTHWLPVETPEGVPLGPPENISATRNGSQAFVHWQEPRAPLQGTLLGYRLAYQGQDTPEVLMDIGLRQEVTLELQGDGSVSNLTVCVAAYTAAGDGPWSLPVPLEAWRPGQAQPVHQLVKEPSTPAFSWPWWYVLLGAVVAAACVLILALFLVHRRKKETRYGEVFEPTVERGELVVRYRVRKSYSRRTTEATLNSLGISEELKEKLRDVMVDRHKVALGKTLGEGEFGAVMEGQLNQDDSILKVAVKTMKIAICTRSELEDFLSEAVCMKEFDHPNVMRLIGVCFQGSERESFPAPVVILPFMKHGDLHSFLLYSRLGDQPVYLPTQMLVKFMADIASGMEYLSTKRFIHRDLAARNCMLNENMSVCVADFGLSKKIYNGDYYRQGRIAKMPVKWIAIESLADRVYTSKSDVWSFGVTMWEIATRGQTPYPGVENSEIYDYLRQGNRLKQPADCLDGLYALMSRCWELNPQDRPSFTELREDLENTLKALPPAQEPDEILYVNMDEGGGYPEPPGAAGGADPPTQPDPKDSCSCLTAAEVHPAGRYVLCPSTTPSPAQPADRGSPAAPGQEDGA", "assay": "anti-FLAG immunoprecipitation, phosphotyrosine Western blot densitometry", "assay_type": "cell-based", "data": [{"smiles": "Cc1c[nH]c2nc(Nc3ccc(N4CCN(C)CC4)c(F)c3)nc(-c3cccc(CC#N)c3)c12", "note": "[SGI-7079]", "values": [{"measurement": "EC50", "result": "< 100", "unit": "nM"}]}]}
